According to patent US20150258050A1, “METHOD FOR REDUCING TRIGLYCERIDES” (DEAKIN UNIVERSITY, priority 2012, published 2015):
Entries after “also recorded” stand apart in the source; their conditions may differ.

Key:
[1] = Chylomicron TAG polyunsaturated fatty acids (gas chromatography of FAME); format: in vivo, human; settings: for EPA (20:5n-3) proportion in chylomicron TAGs: one to five hours postprandial, compared to the other breakfasts
Description: (§1) This was a postprandial study where fasting blood was taken, followed by the consumption of a breakfast containing placebo (olive oil) or active oils (EPA or DPA) and then hourly post prandial blood samples were taken up to 5-hours.
(§2) The study breakfast consisted of 180 grams of instant mashed potato (Continental Deb™, Unilever, Australasia) mixed with 70 ml boiled water and 20 grams of oil. In each of the three meals 18 grams of lipids consisted of olive oil (La Espanola Pure Olive Oil, Seville, Spain). The DPA breakfast included 2 g of DPA (Equateq Ltd, Breasclete, Callanish, Scotland), the EPA breakfast 2 g of EPA (Equateq Ltd, Breasclete, Callanish, Scotland) and the control (olive oil) meal an additional 2 g of olive oil. EPA and DPA were included in the olive oil as free fatty acids. The subjects could use salt, pepper or chicken flavoured salt with the meal and were provided with water throughout the study period ad libitum. Subjects consumed the study meal within 15 minutes.
(§3) A chylomicron-rich fraction (Svedberg flotation unit (Sf) >400), later abbreviated to “chylomicrons”, was isolated from plasma by ultracentrifugation using a Beckman ultra centrifuge and TLA 100.4 rotor (Beckman instruments, Palo Alto, Calif., USA) as previously described (Ågren et al., 2006). Briefly 1.8 ml of EDTA plasma was overlaid with saline solution (density=1.006 kg/I) in ultracentrifuge tubes and centrifuged at 35,000×g for 30 min at 23° C. The top 1 millilitre was aspirated to remove the chylomicron-rich fraction. All samples were frozen at −80° C. prior analysis.
An internal standard mixture of triheptadecanoin (Sigma-Aldrich, St. Louis, Mo., USA), dinonadecanoylphosphatidylcholine (Sigma-Aldrich, St. Louis, Mo., USA) and cholesterylpentadecanoate (Nu-Chek Prep. Inc., Elysian, Minn., USA) was added to the isolated chylomicrons. Then 1.5 ml methanol, 3 ml chloroform and 0.8 ml 0.88% KCl in water were added and the blend was thoroughly vortexed after each addition. The tubes were centrifuged 2000×g for 3 minutes to separate the layers, and the chloroform rich layer was removed and evaporated to dryness (Folch et al., (1957) J Biol Chem 226:497-509). TAGs and phospholipids were isolated from the extracted lipid mixture with solid phase extraction based on silica columns (Hamilton and Comai, (1988) Lipids 23:1146-1149).
Fatty acid methyl esters (FAME) were prepared with a sodium methoxide method. In short, the lipids were suspended to 1 ml dry diethylether. 25 μl methylacetate and 25 μl sodium methoxide were added and the blend was incubated for 5 minutes while shaken at times. The reaction was stopped with 6 μl acetic acid. The tubes were centrifuged 2000×g for 5 minutes, after which the supernatant was removed and gently evaporated to dryness. The resulting FAME were transferred to 100 μl inserts in hexane (Christie (1982) J Lipid Res 23:1072-1075). The FAME were analysed with gas chromatography (Shimadzu GC-2010 equipped with AOC-20i auto injector, flame ionization detector (Shimadzu corporation, Kyoto, Japan) and wall coated open tubular column DB-23 (60 m×0.25 mm i.d., liquid film 0.25 μm, Agilent technologies, J.W. Scientific, Santa Clara, Calif., USA). Splitless/split injection was used and the split was opened after 1 min. Supelco 37 Component FAME Mix (Supelco, St. Louis, Mo., USA), 68D (Nu-Check-Prep, Elysian, Minn., USA) and GLC-490 (Nu-Check-Prep, Elysian, Minn., USA) were used as external standards.

[2] = Postprandial triacylglycerol concentration in chylomicron-rich fraction after test breakfasts; format: in vivo, human
Text: (§4) Ten healthy normal weight females between the age of 20 to 30 of took part in a randomized cross over study with three different breakfast meals. […] The baseline values for EPA and DHA proportions in erythrocytes were 1.0±0.1 and 6.7±0.6% (mean±standard error of the mean). Subjects with any form of cardiovascular disease based on self reported medical status and family history were excluded from the study. All subjects provided written informed consent. Ethics approval was obtained from the Deakin University Human Research Ethics Committee (EC2011-023).
as §1, §2, §3
(§5) TAG concentrations in plasma and the isolated chylomicrons were measured on a Roche Cobas Integra 400 plus autoanalyser (Roche, Lavel, Quebec, Canada) by enzymatic colorimetric method using commercially available kits (TRIGL) as per the manufacturer's instructions (Roche, Lavel, Quebec, Canada).

[3] = rats, short term supplementation; cited from earlier work
[4] = Complaints reported after the study breakfasts; format: in vivo, human
Description: as §2
After the DPA meal, there were two cases of diarrhea and one case of upset stomach but no diarrhea. One case of diarrhea was reported after the EPA meal, and there were no complaints after the olive oil meal. All complaints occurred 2 to 3 hours after the breakfast.

[5] = Lipidomics of PUFA containing chylomicron TAGs (LC-ESI-MS/MS); format: in vivo, human; settings: 3 and 5 hour time points
Description: Lipidomic analysis of the one, three and five hour chylomicron samples was performed by liquid chromatography, electrospray ionisation-tandem mass spectrometry using an Applied Biosystems 4000 QTRAP mass spectrometer running Analyst 1.5 software. Liquid chromatography was performed on a Zorbax C18, 1.8 μm, 50×2.1 mm column (Agilent technologies, Santa Clara Calif., USA). The lipids of the chylomicrons were extracted with chloroform:methanol (2:1, 20 volumes), mixed, sonicated (30 mins) and allowed to stand for 20 mins. Samples were centrifuged (16 000×g, 10 min) and the supernatant transferred to a 96 well PPE plate and dried until a stream of nitrogen at 40° C. […] Quantification of individual TAG species was performed using scheduled multiple-reaction monitoring (MRM) in the positive ion mode (Murphy et al., (2007) Anal Biochem 366:59-70). Lipid concentrations (pmol/mL) were calculated by relating the peak area of each species to the peak area of the internal standard of triheptadecanoin (Sigma Aldrich, St Louis Mo., USA) for TAGs, cholestyl ester-18:0D6 (CDN isotopes, Quebec, Canada) for cholesteryl esters, phosphatidyl choline-13:0/13:0 (Avanti Polar Lipids, Alabaster Ala., USA) for phosphatidyl cholines and phosphatidyl ethanolamine-17:0/17:0 (Avanti Polar Lipids, Alabaster Ala., USA) for ethanolamines and phosphatidyl inositols (using Multiquant 1.2 software). […]

[6] = Postprandial plasma triacylglycerol concentration after test breakfasts (randomized cross-over study); format: in vivo, human
Text: as §4, §1, §2
Venous blood was drawn at the fasting state and hourly post prandial for one to five hours. EDTA blood samples were immediately centrifuged for fifteen minutes at 591×g to isolate the plasma.
as §5

[7] = Chylomicron phospholipid fatty acids (gas chromatography of FAME); format: in vivo, human; settings: at 2 h
Description: as §1
as §2, with “EPA and DPA were included in the olive oil as free fatty acids. The subjects could use salt, pepper or chicken flavoured salt with the meal and were provided with water throughout the study period ad libitum. Subjects consumed the study meal within 15 minutes.” left out
Fatty acid methyl esters (FAME) were prepared with a sodium methoxide method. […] The FAME were analysed with gas chromatography (Shimadzu GC-2010 equipped with AOC-20i auto injector, flame ionization detector (Shimadzu corporation, Kyoto, Japan) and wall coated open tubular column DB-23 (60 m×0.25 mm i.d., liquid film 0.25 μm, Agilent technologies, J.W. Scientific, Santa Clara, Calif., USA). Splitless/split injection was used and the split was opened after 1 min. Supelco 37 Component FAME Mix (Supelco, St. Louis, Mo., USA), 68D (Nu-Check-Prep, Elysian, Minn., USA) and GLC-490 (Nu-Check-Prep, Elysian, Minn., USA) were used as external standards.

[8] = 2 g in breakfast, 10 subjects, 2 to 3 hours after breakfast

| Compound | DHA (22:6n-3) in chylomicron TAGs, compared to olive oil breakfast ([1]; at 2 h and 3 h) | EPA (20:5n-3) proportion in chylomicron TAGs [1] | DPA (22:5n-3) content in chylomicron TAGs ([1]; vs olive oil meal 2-5 h (3 h p=0.06), vs EPA meal 3-5 h) | Incorporation of fatty acids in chylomicrons ([2]; 2 g added to 18 g olive oil, within five hours) | Chylomicron TAG level after the breakfast ([2]; 2 g free fatty acid in 18 g olive oil, up to 5 h postprandial, n=10) | Incremental area under the chylomicron TAG curve, compared to olive oil meal ([2]; 2 g in breakfast, p=0.021) | Incremental area under the chylomicron TAG curve, compared to EPA meal ([2]; 2 g in breakfast, p=0.034) | Chylomicron TAG concentration at individual time points, compared to control meal ([2]; one and two hours, p=0.017 and p=0.068) | Concentration of DHA in liver [3] | Concentration of EPA in the liver, heart and skeletal muscle [3] | Cases of diarrhea after the meal [4, 8] | Cases of upset stomach but no diarrhea after the meal [4, 8] | Subjects reporting diarrhea or upset stomach ([4]; in the three hours following the breakfast) | TAG 58:9 in chylomicrons, compared to olive oil breakfast [5] | Difference between plasma TAG areas, compared to control meal ([6]; 2 g in breakfast, p=0.078) | Plasma TAG concentration at individual time points, compared to control meal ([6]; one and two hours, p=0.024 and p=0.014) | Plasma triglyceride level after consumption ([6]; postprandial) | DHA (22:6n-3) in chylomicron TAGs, compared to olive oil breakfast ([1]; at 5 h) | Amount of DPA and DHA in chylomicron phospholipids, compared to olive oil breakfast [7] | Proportion of EPA in chylomicron phospholipids, compared to the two other breakfasts [7] |
| --- | --- | --- | --- | --- | --- | --- | --- | --- | --- | --- | --- | --- | --- | --- | --- | --- | --- | --- | --- | --- |
| CCC=CCC=CCC=CCC=CCC=CCCCCCC(=O)O [DPA, 7, 10, 13, 16, 19 docosapentaenoic acid] | significantly increased | did not raise | significantly higher | almost completely eliminates | remained close to fasting levels; also recorded: remained at almost fasting level | significantly reduced | significantly reduced | smaller | significantly increased | significantly increased | two | one | three out of the ten | significantly more | tended to be significant | smaller | remained close to fasting levels |  |  |  |
| CC/C=C\C/C=C\C/C=C\C/C=C\C/C=C\CCCC(=O)O [EPA, eicosapentaenoic acid, reference compound] |  | significantly higher |  |  |  |  |  |  |  |  | One |  |  | significantly more |  |  |  | significantly increased | increased | increased |
